# Measured values: patent publication US20230330093A1, “APPLICATION OF NITROGEN-CONTAINING SATURATED HETEROCYCLIC COMPOUND” (SHANGHAI PHARMACEUTICALS HOLDING CO., LTD., priority 2020, published 2023)
# Values joined by “and” are separate entries in the source; they are usually repeats but may differ in a detail not shown here. Identical values can stand only once. “Also recorded” adds a separate entry of the source.
# Columns and labels:
# [1] = test system: rhesus monkeys with spontaneous chronic kidney disease (CKD); experiment: Effect on UACR (proteinuria), 8-week oral administration; format: in vivo, Macaca mulatta (Rhesus Macaque); details: for MALB: Valsartan group 2.67 mg/kg/time oral (qd wk 1-2, bid wk 3-8); for MALB / UACR change rate / UACR: per animal + Mean ± SD; for UACR change rate: 8 weeks vs baseline, negative = decrease
# Procedure: CKD-EPI rating […]-G3b, glomerular filtration rate eGFR: 30 59 ml/min/1.73 m^2; or moderate to severe increase in proteinuria (A2-A3): urine albumin/creatinine ratio (UACR)>15 mg/g-350 mg/g (4-6 hour urine collection), vs. age-matched control group 3±2 mg/g. In the trial, animals were brought in three stages. […] ELISA kit was used for NT-proBNP test. [table]
# [2] = test system: rhesus monkeys with spontaneous chronic kidney disease; experiment: Effect on glomerular filtration rate eGFRcreat-cys, 8-week administration; format: in vivo, Macaca mulatta (Rhesus Macaque); details: for eGFRcreat-cys / eGFRcreat-cys Change value (8 weeks): Valsartan group (n = 3); for eGFRcreat-cys Change value (8 weeks): 8 weeks − Baseline
# Procedure: CKD-EPI rating […]-G3b, glomerular filtration rate eGFR: 30 59 ml/min/1.73 m^2; or moderate to severe increase in proteinuria (A2-A3): urine albumin/creatinine ratio (UACR)>15 mg/g-350 mg/g (4-6 hour urine collection), vs. age-matched control group 3±2 mg/g. In the trial, animals were brought in three stages. […] Glomerular filtration rate […]: creatinine (Cr-P), urea nitrogen (BUN) and cystatin (CysC) were detected, and the eGFR value was obtained by calculation. It was performed once before the administration and once every two weeks after the administration. […] ELISA kit was used for NT-proBNP test. [table] Selected […] in each group: 30 59 ml/min/1.73 m^2. The changes in the glomerular filtration rate of W8 and baseline were analyzed.
smiles,measurement,setting,value
"CCCCC(=O)N(Cc1ccc(-c2ccccc2-c2nnn[nH]2)cc1)[C@H](C(=O)O)C(C)C [Valsartan, reference compound]",MALB,[1]; 8 weeks,6.2 mg/L and 39.9 mg/L and 19.5 mg/L
same,MALB,"[1]; 8 weeks, mean",21.9 ± 17.0 mg/L
same,MALB,[1]; Baseline,7.1 mg/L and 60.0 mg/L and 25.8 mg/L
same,MALB,"[1]; Baseline, mean",31.0 ± 26.8 mg/L
same,UACR change rate,[1]; Valsartan group 2.67 mg/kg/time oral,-41.10% and -69.59% and 35.88%
same,UACR change rate,"[1]; Valsartan group 2.67 mg/kg/time oral, mean",−24.93 ± 54.56%
same,UACR Benefit assessment,"[1]; Valsartan group 2.67 mg/kg/time oral, 8 weeks, per animal",both showed benefit; also recorded: the benefit was not obvious
same,UACR,"[1]; Valsartan group 2.67 mg/kg/time oral, 8 weeks",22.0 mg/g and 19.3 mg/g and 20.4 mg/g
same,UACR,"[1]; Valsartan group 2.67 mg/kg/time oral, 8 weeks, mean",20.6 ± 1.3 mg/g
same,UACR,"[1]; Valsartan group 2.67 mg/kg/time oral, Baseline",15 mg/g and 37.3 mg/g and 63.6 mg/g and 15.0 mg/g and 38.7 ± 24.3 mg/g
same,"UACR of W8 decreased by, compared with the baseline","[1]; Valsartan group, 2 animals (No. 2091, No. 4861)",40%-70%
same,W8 UACR after administration,"[1]; Valsartan group, one animal with baseline UACR 15 mg/g",20.4%
same,"eGFRcreat-cy, Change value","[2]; Valsartan group 2.67 mg/kg/time oral (qd wk 1-2, bid wk 3-8), Baseline, per animal + Mean ± SD",0 ml/min/1.73 m^2
same,"eGFRcreat-cy, Change value","[2]; Valsartan group 2.67 mg/kg/time oral (qd wk 1-2, bid wk 3-8), Baseline, per animal + Mean ± SD, mean",0 ± 0 ml/min/1.73 m^2
same,"eGFRcreat-cy, Change value","[2]; Valsartan group 2.67 mg/kg/time oral, 2 weeks vs baseline, per animal + Mean ± SD",4 ml/min/1.73 m^2 (2×) and 6 ml/min/1.73 m^2
same,"eGFRcreat-cy, Change value","[2]; Valsartan group 2.67 mg/kg/time oral, 2 weeks vs baseline, per animal + Mean ± SD, mean",5 ± 1 ml/min/1.73 m^2
same,"eGFRcreat-cy, Change value","[2]; Valsartan group 2.67 mg/kg/time oral, 4 weeks vs baseline, per animal + Mean ± SD",1 ml/min/1.73 m^2 and 7 ml/min/1.73 m^2 and 6 ml/min/1.73 m^2
same,"eGFRcreat-cy, Change value","[2]; Valsartan group 2.67 mg/kg/time oral, 4 weeks vs baseline, per animal + Mean ± SD, mean",5 ± 3 ml/min/1.73 m^2
same,"eGFRcreat-cy, Change value","[2]; Valsartan group 2.67 mg/kg/time oral, 6 weeks vs baseline, per animal + Mean ± SD",1 ml/min/1.73 m^2 and 5 ml/min/1.73 m^2 and 7 ml/min/1.73 m^2
same,"eGFRcreat-cy, Change value","[2]; Valsartan group 2.67 mg/kg/time oral, 6 weeks vs baseline, per animal + Mean ± SD, mean",4 ± 3 ml/min/1.73 m^2
same,"eGFRcreat-cy, Change value","[2]; Valsartan group 2.67 mg/kg/time oral, 8 weeks vs baseline, per animal + Mean ± SD (p<0.01 vs placebo)",6±2 ml/min/1.73 m^2 and 5 ml/min/1.73 m^2 and 8 ml/min/1.73 m^2
same,eGFRcreat-cys,[2]; 2 weeks,58 ml/min/1.73 m^2 and 54 ml/min/1.73 m^2 and 46 ml/min/1.73 m^2
same,eGFRcreat-cys,"[2]; 2 weeks, group mean",53 ± 6 ml/min/1.73 m^2
same,eGFRcreat-cys,[2]; 4 weeks,55 ml/min/1.73 m^2 and 57 ml/min/1.73 m^2 and 46 ml/min/1.73 m^2
same,eGFRcreat-cys,"[2]; 4 weeks, group mean",53 ± 6 ml/min/1.73 m^2
same,eGFRcreat-cys,[2]; 6 weeks,55 ml/min/1.73 m^2 and 47 ml/min/1.73 m^2
same,eGFRcreat-cys,"[2]; 6 weeks, group mean",53 ± 5 ml/min/1.73 m^2
same,eGFRcreat-cys,[2]; 8 weeks,60 ml/min/1.73 m^2 and 59 ml/min/1.73 m^2 and 46 ml/min/1.73 m^2
same,eGFRcreat-cys Change value (8 weeks),[2],5 ml/min/1.73 m^2 and 8 ml/min/1.73 m^2
same,eGFRcreat-cys Change value (8 weeks),[2]; group mean,6 ± 2 ml/min/1.73 m^2
same,eGFRcreat-cys,"[2]; 8 weeks, group mean",55 ± 8 ml/min/1.73 m^2
same,eGFRcreat-cys,"[2]; Baseline, single animals and Mean ± SD",55 ml/min/1.73 m^2 and 50 ml/min/1.73 m^2 and 40 ml/min/1.73 m^2
same,eGFRcreat-cys,"[2]; Baseline, single animals and Mean ± SD, group mean",48 ± 7 ml/min/1.73 m^2
